Results from paper PMC9085648, “Synthesis of novel genistein amino acid derivatives and investigation on their interactions with bovine serum albumin by spectroscopy and molecular docking” (RSC Advances, 2018).
Where two headings read alike, the source gives them in different places.

Legend:
HCT-116 = assay: MTT cytotoxicity assay, HCT-116; assay type: cell-based; details: Homo sapiens, 48 h, mean ± SD of three experiments, read-out: Cancer cell lines IC50, HCT-116
Procedure: (§1) All cell lines were purchased from the Cell Bank of Type Culture Collection of Chinese Academy of Sciences (Shanghai, China). MGC-803 was routinely cultured in RPMI-1640 medium containing 10% FBS and 1% penicillin/streptomycin. MCF-7, HCT-116 and Hela were routinely cultured in medium DMEM/high glucose containing 10% FBS and 1% penicillin/streptomycin. All cell lines were incubated in culture at 37 °C in air with 5% CO2 for 24 h.
(§2) All cell lines were plated in 96-well plates, and each well contains 4000 cells in 100 μL culture medium. Then the cells were treated with genistein or its amino acid derivatives dissolved in DMSO at different doses in a CO2 incubator at 37 °C for 48 h, and DMSO was used as vehicle control. After removing the culture medium, 10 μL MTT and 90 μL blank culture medium were added to each well and incubated for additional 4 h at 37 °C. The absorbance was determined by a microplate-reader at 490 nm.

MGC-803 = assay: MTT cytotoxicity assay, MGC-803; assay type: cell-based; details: Homo sapiens, 48 h, mean ± SD of three experiments, read-out: Cancer cell lines IC50, MGC-803
Procedure: as §1, §2

MCF-7 = assay: MTT cytotoxicity assay, MCF-7; assay type: cell-based; details: Homo sapiens, MCF7, 48 h, mean ± SD of three experiments, read-out: Cancer cell lines IC50, MCF-7
Procedure: as §1, §2

Hela = assay: MTT cytotoxicity assay, Hela; assay type: cell-based; details: Homo sapiens, 48 h, mean ± SD of three experiments, read-out: Cancer cell lines IC50, Hela
Procedure: as §1, §2

BSA [1] = biological target: T1, BSA (Bos taurus, UniProt P02769); assay: Fluorescence quenching of BSA (Stern-Volmer, double-log, van't Hoff); assay type: binding, bovine; details: for K SV (quenching constant): BSA 1 μM, pH 7.4; for ΔGexp: ΔGexp = ΔH − TΔS; for K q (quenching rate constant): τ0 = 10^−8 s; for Kd: read-out: K b (binding constant) (converted); for ΔH / ΔS: van't Hoff, 298-310 K
T1 construct: purchased Aladdin's Reagent Co., Ltd. (Shanghai, China)
T1 sequence (P02769 25-607): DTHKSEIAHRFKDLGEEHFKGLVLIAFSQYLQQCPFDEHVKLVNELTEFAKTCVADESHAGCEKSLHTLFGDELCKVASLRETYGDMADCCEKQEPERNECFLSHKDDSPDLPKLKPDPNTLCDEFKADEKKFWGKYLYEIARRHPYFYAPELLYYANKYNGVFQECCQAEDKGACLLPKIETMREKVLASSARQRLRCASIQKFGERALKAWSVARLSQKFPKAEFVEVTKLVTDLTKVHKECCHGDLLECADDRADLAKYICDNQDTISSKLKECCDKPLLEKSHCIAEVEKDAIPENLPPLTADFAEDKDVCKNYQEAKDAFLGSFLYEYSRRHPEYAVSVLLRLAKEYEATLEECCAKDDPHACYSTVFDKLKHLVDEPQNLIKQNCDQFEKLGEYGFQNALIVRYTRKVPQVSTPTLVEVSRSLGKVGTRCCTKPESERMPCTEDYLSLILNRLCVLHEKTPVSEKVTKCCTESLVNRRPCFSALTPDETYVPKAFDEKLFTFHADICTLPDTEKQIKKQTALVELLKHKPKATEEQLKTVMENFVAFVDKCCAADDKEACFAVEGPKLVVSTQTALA
Procedure: Fluorescence spectra were carried on a F-7000 fluorescence spectrophotometer (Japan) fitted out with a 1.0 cm quartz dish. The excitation wavelength was set at 280 nm with 5/5 nm slit widths, while the emission wavelength ranged from 290 nm to 500 nm at different temperatures. The BSA solution (1 μM) was titrated with genistein and its amino acid derivatives 4a–4d for three times. The final concentrations of genistein and 4a–4d were (0.0, 6.4, 12.8, 19.2, 25.6, 32, 38.4, 44.8, and 51.2) μM.
The Stern–Volmer equation is often applied to reveal the fluorescence quenching mechanism:[19]1 [drawing 1] where F0 and F are the fluorescence intensities of complex […], respectively.[18] [Q] denotes the concentration of quencher. Ksv and Kq are quenching constant and quenching rate constant of BSA, respectively.[20]τ0 is the lifetime of fluorophore in the absence of genistein, 4a–4d and equals to 10^−8 s.[21] […] It can be observed that the Ksv values decreased gradually with rise in temperature in Table 2. Furthermore, Kq values were in the order of 10^12, which were larger than the maximum diffusion collisional rate constant (2.0 × 10^10 M^−1 s^−1).[22]
Double-logarithmic eqn (2) is often used to explore the binding parameters of static quenching, such as binding constant (Kb) and binding sites (n):[23]2 [drawing 2]
To clarify the binding forces between genistein, 4a–4d and BSA, the thermodynamic parameters were studied via the van't Hoff equations:[25]3 [drawing 3] 4 ΔG = −RT ln K = ΔH − TΔSwhere T denotes the experimental temperature, K denotes the binding constant at the corresponding temperature, R is the gas constant.[26] According to Ross and Subramanian's previous research,[27] the characteristic for van der Waals interactions or/and hydrogen bonding is ΔH < 0 and ΔS < 0, for hydrophobic interaction is ΔH > 0 and ΔS > 0, and for electrostatic interactions is ΔH ≈ 0 and ΔS > 0.[28] The calculation results of the thermodynamic parameters were recorded in Table 3.

BSA [2] = biological target: T1, BSA; assay: Three-dimensional fluorescence spectroscopy of BSA; assay type: binding, bovine
Procedure: The 3D fluorescence spectra of genistein and compounds 4a–4d were recorded with scanning excitation wavelength ranged from 200 nm to 300 nm with 10 nm interval, and emission wavelength ranged from 290 nm to 470 nm with 5 nm interval for three times. Other parameters were the same as Section 2.4.1.

[3] = Peak 1, [BSA]:[compound] = 1:3, 298 K
[4] = Peak 2, [BSA]:[compound] = 1:3, 298 K
[5] = Peak a (Rayleigh scattering), [BSA]:[compound] = 1:3, 298 K

K SV (quenching constant) (BSA [1]; T 298 K)	ΔGexp (BSA [1]; T 298 K)	K q (quenching rate constant) (BSA [1]; T 298 K)	Kd (BSA [1]; T 298 K)	n (binding sites) (BSA [1]; T 306 K)	K SV (quenching constant) (BSA [1]; T 306 K)	ΔGexp (BSA [1]; T 306 K)	K q (quenching rate constant) (BSA [1]; T 306 K)	Kd (BSA [1]; T 306 K)	n (binding sites) (BSA [1]; T 310 K)	ΔGexp (BSA [1]; T 310 K)	Kd (BSA [1]; T 310 K)	ΔH (BSA [1])	ΔS (BSA [1])	3D fluorescence intensity (BSA [2]; [3])	3D fluorescence peak position λex/λem (BSA [2]; [3])	Compound	IC50 (HCT-116)	IC50 (MGC-803)	IC50 (MCF-7)	IC50 (Hela)	further results
9.3690 ± 0.1055 10^4 M^−1	-49.21 kJ/M	9.3690 10^12 M^−1 s^−1	0.0023 µM	1.72	9.0645 ± 0.0720 10^4 M^−1	-47.21 kJ/M	9.0645 10^12 M^−1 s^−1	0.00952 µM	1.66	-46.22 kJ/M	0.0153 µM	-123.52 kJ/M	−249.37 J K^−1 M^−1	249.8 a.u	230/355	COC(=O)CNC(=O)COc1cc(O)c2c(=O)c(-c3ccc(O)cc3)coc2c1 [4a]	65.3 ± 2.91 µM	24.4 ± 1.27 µM	> 100 µM	66.6 ± 3.6 µM	n (binding sites) (BSA [1]; T 298 K): 1.86; K SV (quenching constant) (BSA [1]; T 310 K): 7.7362 ± 0.1223 10^4 M^−1; K q (quenching rate constant) (BSA [1]; T 310 K): 7.7362 10^12 M^−1 s^−1; 3D fluorescence intensity (BSA [2]; [4]): 300.8 a.u; 3D fluorescence peak position λex/λem (BSA [2]; [4]): 280/355; 3D fluorescence intensity (BSA [2]; [5]): 167.9 a.u; 3D fluorescence peak position λex/λem (BSA [2]; [5]): 290/295
8.0160 ± 0.1379 10^4 M^−1	-42.01 kJ/M	8.0160 10^12 M^−1 s^−1	0.0649 µM	1.53	6.9409 ± 0.0956 10^4 M^−1	-38.43 kJ/M	6.9409 10^12 M^−1 s^−1	0.0794 µM	1.23	-36.65 kJ/M	1.55 µM	-175.21 kJ/M	−446.98 J K^−1 M^−1	199.8 a.u	230/355	COC(=O)C(C)NC(=O)COc1cc(O)c2c(=O)c(-c3ccc(O)cc3)coc2c1 (stereo not drawn) [4b]	> 100 µM	12.08 ± 0.06 µM	21.3 ± 2.24 µM	90.27 ± 0.47 µM	3D fluorescence intensity (BSA [2]; [4]): 242.6 a.u; 3D fluorescence peak position λex/λem (BSA [2]; [4]): 280/355; 3D fluorescence intensity (BSA [2]; [5]): 140.7 a.u; 3D fluorescence peak position λex/λem (BSA [2]; [5]): 290/295
6.2575 ± 0.1717 10^4 M^−1	-41.29 kJ/M	6.2575 10^12 M^−1 s^−1	0.084 µM	1.53	5.0010 ± 0.1067 10^4 M^−1	-37.63 kJ/M	5.0010 10^12 M^−1 s^−1	0.119 µM	1.24	-35.81 kJ/M	2.01 µM	-177.34 kJ/M	−456.55 J K^−1 M^−1	254.6 a.u	230/355	COC(=O)C(NC(=O)COc1cc(O)c2c(=O)c(-c3ccc(O)cc3)coc2c1)C(C)C (stereo not drawn) [4c]	42.64 ± 0.15 µM	33.53 ± 0.13 µM	99.73 ± 0.11 µM	82.71 ± 0.15 µM	n (binding sites) (BSA [1]; T 298 K): 1.54; K SV (quenching constant) (BSA [1]; T 310 K): 4.8646 ± 0.1370 10^4 M^−1; K q (quenching rate constant) (BSA [1]; T 310 K): 4.8646 10^12 M^−1 s^−1; 3D fluorescence intensity (BSA [2]; [4]): 338.3 a.u; 3D fluorescence peak position λex/λem (BSA [2]; [4]): 280/355; 3D fluorescence intensity (BSA [2]; [5]): 210.9 a.u; 3D fluorescence peak position λex/λem (BSA [2]; [5]): 290/295
4.9339 ± 0.0500 10^4 M^−1	-39.53 kJ/M	4.9339 10^12 M^−1 s^−1	0.15 µM	1.47	4.8535 ± 0.0465 10^4 M^−1	-37.19 kJ/M	4.8535 10^12 M^−1 s^−1	0.209 µM	1.28	-36.02 kJ/M	1.42 µM	-126.67 kJ/M	−292.42 J K^−1 M^−1	263.8 a.u	230/355	COC(=O)C(CC(C)C)NC(=O)COc1cc(O)c2c(=O)c(-c3ccc(O)cc3)coc2c1 (stereo not drawn) [4d]	92.87 ± 0.04 µM	35.4 ± 3.72 µM	47 ± 3.53 µM	68.1 ± 1.05 µM	n (binding sites) (BSA [1]; T 298 K): 1.50; K SV (quenching constant) (BSA [1]; T 310 K): 4.5804 ± 0.0360 10^4 M^−1; K q (quenching rate constant) (BSA [1]; T 310 K): 4.5804 10^12 M^−1 s^−1; 3D fluorescence intensity (BSA [2]; [4]): 331.4 a.u; 3D fluorescence peak position λex/λem (BSA [2]; [4]): 280/355; 3D fluorescence intensity (BSA [2]; [5]): 155.5 a.u; 3D fluorescence peak position λex/λem (BSA [2]; [5]): 290/295

Compound	K SV (quenching constant) (BSA [1]; T 298 K)	ΔGexp (BSA [1]; T 298 K)	K q (quenching rate constant) (BSA [1]; T 298 K)	Kd (BSA [1]; T 298 K)	n (binding sites) (BSA [1]; T 306 K)	K SV (quenching constant) (BSA [1]; T 306 K)	ΔGexp (BSA [1]; T 306 K)	K q (quenching rate constant) (BSA [1]; T 306 K)	Kd (BSA [1]; T 306 K)	n (binding sites) (BSA [1]; T 310 K)	ΔGexp (BSA [1]; T 310 K)	Kd (BSA [1]; T 310 K)	ΔH (BSA [1])	ΔS (BSA [1])	3D fluorescence intensity (BSA [2]; [3])	3D fluorescence peak position λex/λem (BSA [2]; [3])	IC50 (HCT-116)	IC50 (MGC-803)	IC50 (MCF-7)	IC50 (Hela)	further results
O=c1c(-c2ccc(O)cc2)coc2cc(O)cc(O)c12 [Genistein]	6.2416 ± 0.0984 10^4 M^−1	-37.69 kJ/M	6.2416 10^12 M^−1 s^−1	0.256 µM	1.39	5.3472 ± 0.1242 10^4 M^−1	-37.11 kJ/M	5.3472 10^12 M^−1 s^−1	0.415 µM	1.37	-36.83 kJ/M	0.671 µM	-59.09 kJ/M	−71.83 J K^−1 M^−1	259.2 a.u	230/355	> 100 µM	> 100 µM	> 100 µM	> 100 µM	n (binding sites) (BSA [1]; T 298 K): 1.42; K SV (quenching constant) (BSA [1]; T 310 K): 4.3285 ± 0.1005 10^4 M^−1; K q (quenching rate constant) (BSA [1]; T 310 K): 4.3285 10^12 M^−1 s^−1; 3D fluorescence intensity (BSA [2]; [4]): 333.2 a.u; 3D fluorescence peak position λex/λem (BSA [2]; [4]): 280/355; 3D fluorescence intensity (BSA [2]; [5]): 159.6 a.u; 3D fluorescence peak position λex/λem (BSA [2]; [5]): 290/295
